We go through 3 compounds from patent US20100305658A1 (priority 2004, published 2010).

Assay [1] has as its system striatal dopamine efflux (dopamine oxidation current). The experiment in a line: STN stimulation-evoked striatal dopamine efflux, constant potential amperometry, effects of selective reuptake inhibitors. It counts as in vivo, rat. The conditions noted are these: post-drug, 20 mg/kg systemic injection, STN stimulation 15 pulses, 50 Hz, 300 μA.
The subject of assay [2] is glutamate release in ferret thalamic slices (A1 lamina of the LGN). The experiment in a line: HFS-induced glutamate release in thalamic slices measured with a glutamate sensor. It counts as cell-based.
Assay [3] deals with GABAA receptors. In words: Extracellular recording of spontaneous spindle waves in LGN slice with GABAA receptors blocked. It counts as cell-based. The conditions noted are these: 20 μM in bath; ferret LGN slice; n=5 slices. The protocol: For the preparation of slices, 3-4 month old male or female ferrets (muftela putoriouf furo; Marshall Farms; North Rose, New York) were deeply anesthetized with sodium pentobarbital (30-40 mg/kg) and killed by decapitation. The forebrain was rapidly removed, and the hemispheres were separated with a midline incision. Four hundred micron thick slices were cut using a vibratome (Ted Pella, Inc.) in the sagittal plane. During preparation of slices, the tissue was placed in a solution (5° C.) in which NaCl was replaced with sucrose while maintaining an osmolarity of 307 mOsm to increase tissue viability. […]
Intracellular recording electrodes were formed on a Sutter Instruments P-2000 laser micropipette puller from medium-walled glass (WPI, 1B100F). […] The data was analyzed using Chart (eDaq) on a Pentium style computer and figures were drawn using Core1DRAW (Corel).
To test the functional effects of HFS-mediated glutamate release, simultaneous intracellular and extracellular recordings were made in the ferret lateral geniculate nucleus (LGN) in vitro slice preparation, which generates spontaneous spindle waves (FIG. 14; n=21). Spindle activity was recorded from a population of neurons (extracellular electrode), and the electrophysiological activity associated with the spindle activity was recorded from single neurons within that population. […]

Turning to `CN1Cc2c(N)cccc2C(c2ccccc2)C1` (stereo not shown) [nomifensine], in assay [1], the “recovery of dopamine efflux to prestimulation baseline levels (total duration)” value was 2035 ± 132 ms. Further, the “STN electrical stimulation-evoked dopamine oxidation current (amplitude)” value in assay [1] (anaesthetized rat striatum) came out at 765±38 pA.

Take `NC1=N[C@H](O)[C@H]2[C@H]3O[C@]4(O)O[C@@H]([C@@H](O)[C@@]2(N1)[C@@H]4O)[C@]3(O)CO` [tetrodotoxin]: the “block of glutamate release induced by HFS” value in assay [2] is “failed to block”.

Consider picrotoxin, for which, in assay [3], the “effect on spontaneous spindle waves” value is recorded as “transformed into events that resemble absence-seizure-like activity”.
